Measured values published in ChEMBL document CHEMBL5584238, “Psammaplin A analogues with modified disulfide bond targeting histone deacetylases: Synthesis and biological evaluation” (Eur J Med Chem, 2024).
pIC50: −log10 of the molar value. Calls of active or inactive are those of the source. The rule behind the calls is not given here.

What was measured:
[1] = target: T1, Protein deacetylase HDAC6 (Homo sapiens) (UniProt Q9UBN7); assay: Inhibition of HDAC6 in human HCT-116 cells assessed as upregulation of acetylated alpha-tubulin level incubated for 24 hrs by Western blotting analysis; assay type: cell-based; settings: dose 0.5-4 µM
T1 sequence (whole entry): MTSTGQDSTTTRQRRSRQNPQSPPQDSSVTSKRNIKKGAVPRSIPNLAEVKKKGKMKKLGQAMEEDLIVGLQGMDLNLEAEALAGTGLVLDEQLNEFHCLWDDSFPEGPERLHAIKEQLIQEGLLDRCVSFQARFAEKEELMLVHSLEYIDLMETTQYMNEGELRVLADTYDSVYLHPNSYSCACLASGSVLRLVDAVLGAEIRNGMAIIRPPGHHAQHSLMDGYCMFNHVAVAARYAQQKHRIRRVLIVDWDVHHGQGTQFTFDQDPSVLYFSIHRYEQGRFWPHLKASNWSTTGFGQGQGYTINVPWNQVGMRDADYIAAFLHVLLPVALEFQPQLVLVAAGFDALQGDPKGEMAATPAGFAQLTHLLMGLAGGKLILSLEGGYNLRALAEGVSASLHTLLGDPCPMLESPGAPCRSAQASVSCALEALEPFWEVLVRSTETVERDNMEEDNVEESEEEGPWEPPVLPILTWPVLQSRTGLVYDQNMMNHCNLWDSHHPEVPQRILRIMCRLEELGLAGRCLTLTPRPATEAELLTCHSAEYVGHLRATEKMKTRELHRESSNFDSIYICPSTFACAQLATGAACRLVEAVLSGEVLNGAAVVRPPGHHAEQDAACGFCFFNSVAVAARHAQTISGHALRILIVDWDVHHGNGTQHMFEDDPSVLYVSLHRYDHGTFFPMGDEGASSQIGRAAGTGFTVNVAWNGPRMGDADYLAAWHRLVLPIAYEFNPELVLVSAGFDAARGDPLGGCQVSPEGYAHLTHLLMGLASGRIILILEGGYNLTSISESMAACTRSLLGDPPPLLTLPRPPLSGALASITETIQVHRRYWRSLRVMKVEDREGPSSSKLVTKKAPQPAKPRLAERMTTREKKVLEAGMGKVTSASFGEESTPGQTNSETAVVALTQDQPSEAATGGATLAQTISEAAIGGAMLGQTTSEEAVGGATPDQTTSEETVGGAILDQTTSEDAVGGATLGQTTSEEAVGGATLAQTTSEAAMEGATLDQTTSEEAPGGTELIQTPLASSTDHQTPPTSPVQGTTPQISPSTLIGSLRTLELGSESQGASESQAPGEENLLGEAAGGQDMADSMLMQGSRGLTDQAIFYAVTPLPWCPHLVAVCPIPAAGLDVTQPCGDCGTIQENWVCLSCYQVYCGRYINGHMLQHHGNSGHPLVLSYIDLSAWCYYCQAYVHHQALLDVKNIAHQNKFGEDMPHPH

HCT-116 [2] = assay: Induction of apoptosis in human HCT-116 cells assessed as viable cells at 0.4 uM incubated for 24 hrs by Annexin V-FITC/PI staining based flow cytometry analysis ( Rvb = 92.2%); assay type: functional; settings: read-out: Activity
HCT-116 [3] = assay: Induction of cell cycle arrest in human HCT-116 cells assessed as accumulation of cells at S phase at 0.2 uM after 24 hrs by PI staining based flow cytometry analysis (reference value: 52.8%); assay type: functional
HCT-116 [4] = assay: Induction of apoptosis in human HCT-116 cells assessed as late apoptotic cells at 0.4 uM incubated for 24 hrs by Annexin V-FITC/PI staining based flow cytometry analysis ( Rvb = 5.32%); assay type: functional
HCT-116 [5] = assay: Induction of cell cycle arrest in human HCT-116 cells assessed as accumulation of cells at G1 phase at 0.1 uM after 24 hrs by PI staining based flow cytometry analysis (reference value: 37.9%); assay type: functional
HCT-116 [6] = assay: Induction of cell cycle arrest in human HCT-116 cells assessed as accumulation of cells at G2/M phase at 0.1 uM after 24 hrs by PI staining based flow cytometry analysis (reference value: 9.3%); assay type: functional
HCT-116 [7] = assay: Induction of cell cycle arrest in human HCT-116 cells assessed as accumulation of cells at G1 phase at 0.2 uM after 24 hrs by PI staining based flow cytometry analysis (reference value: 37.9%); assay type: functional
HCT-116 [8] = assay: Induction of cell cycle arrest in human HCT-116 cells assessed as accumulation of cells at G2/M phase at 0.2 uM after 24 hrs by PI staining based flow cytometry analysis (reference value: 9.3%); assay type: functional
[9] = target: T2, Protein deacetylase HDAC6 (Homo sapiens, UniProt Q9UBN7); assay: Inhibition of recombinant human HDAC6 using Boc-Lys(Ac)-AMC as substrate preincubated for 1 hr followed by substrate addition and measured after 2 hrs by microplate reader assay
T2 sequence (Q9UBN7 whole entry): T1 sequence (whole entry)

HCT-116 [10] = assay: Induction of cell cycle arrest in human HCT-116 cells assessed as accumulation of cells at S phase at 0.1 uM after 24 hrs by PI staining based flow cytometry analysis (reference value: 52.8%); assay type: functional
[11] = Toxicity in mouse assessed as mortality at 5 mg/kg, ip administered every 2 days for 26 days; assay type: organism-based; settings: in vivo, 624 h, time 26 day
HCT-116 [12] = assay: Induction of apoptosis in human HCT-116 cells assessed as late apoptotic cells at 0.2 uM incubated for 24 hrs by Annexin V-FITC/PI staining based flow cytometry analysis ( Rvb = 5.32%); assay type: functional
HCT-116 [13] = assay: Antiproliferative activity against human HCT-116 cells incubated for 48 hrs by MTT assay; assay type: functional, cell-based; settings: HCT-116, 48 h
HCT-116 [14] = assay: Induction of apoptosis in human HCT-116 cells assessed as early apoptotic cells at 0.2 uM incubated for 24 hrs by Annexin V-FITC/PI staining based flow cytometry analysis ( Rvb = 2.36%); assay type: functional
[15] = target: T3, Class 1 histone deacetylase (Homo sapiens) (UniProt Q13547+O15379+Q92769+Q9BY41); assay: Inhibition of class 1 HDACs in human HCT-116 cells assessed as upregulation of acetylated alpha-H3 level incubated for 24 hrs by Western blotting analysis; assay type: cell-based; settings: dose 0.5-4 µM
HCT-116 [16] = assay: Induction of cell cycle arrest in human HCT-116 cells assessed as accumulation of cells at G2/M phase at 0.4 uM after 24 hrs by PI staining based flow cytometry analysis (reference value: 9.3%); assay type: functional
HCT-116 [17] = assay: Induction of cell cycle arrest in human HCT-116 cells assessed as accumulation of cells at S phase at 0.4 uM after 24 hrs by PI staining based flow cytometry analysis (reference value: 52.8%); assay type: functional
NCI-H1581 = assay: Antiproliferative activity against human NCI-H1581 cells incubated for 48 hrs by MTT assay; assay type: functional, cell-based; settings: NCI-H1581, 48 h
EBC-1 = assay: Antiproliferative activity against human EBC-1 cells incubated for 48 hrs by MTT assay; assay type: functional, cell-based; settings: EBC-1, 48 h
[18] = target: T3, Class 1 histone deacetylase (Homo sapiens); assay: Inhibition of class 1 HDACs in human HCT-116 cells assessed as upregulation of acetylated alpha-H3 level at 1 uM incubated for 24 hrs by Western blotting analysis; assay type: cell-based
[19] = target: T1, Protein deacetylase HDAC6 (Homo sapiens); assay: Inhibition of HDAC6 in human HCT-116 cells assessed as upregulation of acetylated alpha-tubulin level at 1 uM incubated for 24 hrs by Western blotting analysis; assay type: cell-based

T3 sequence (O15379 whole entry, looked up): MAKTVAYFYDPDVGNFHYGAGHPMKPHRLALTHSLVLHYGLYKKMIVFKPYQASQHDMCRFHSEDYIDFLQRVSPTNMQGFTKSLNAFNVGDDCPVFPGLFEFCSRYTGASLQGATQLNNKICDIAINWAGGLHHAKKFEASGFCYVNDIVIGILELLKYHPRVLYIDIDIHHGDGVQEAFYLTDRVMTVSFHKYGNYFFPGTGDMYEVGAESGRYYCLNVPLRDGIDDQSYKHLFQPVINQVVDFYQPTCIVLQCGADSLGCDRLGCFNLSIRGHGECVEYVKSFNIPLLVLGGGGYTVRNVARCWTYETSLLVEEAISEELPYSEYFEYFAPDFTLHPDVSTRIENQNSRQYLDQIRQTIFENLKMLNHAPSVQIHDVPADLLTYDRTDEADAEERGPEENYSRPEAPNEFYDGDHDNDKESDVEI
T3 sequence (Q13547 whole entry, looked up): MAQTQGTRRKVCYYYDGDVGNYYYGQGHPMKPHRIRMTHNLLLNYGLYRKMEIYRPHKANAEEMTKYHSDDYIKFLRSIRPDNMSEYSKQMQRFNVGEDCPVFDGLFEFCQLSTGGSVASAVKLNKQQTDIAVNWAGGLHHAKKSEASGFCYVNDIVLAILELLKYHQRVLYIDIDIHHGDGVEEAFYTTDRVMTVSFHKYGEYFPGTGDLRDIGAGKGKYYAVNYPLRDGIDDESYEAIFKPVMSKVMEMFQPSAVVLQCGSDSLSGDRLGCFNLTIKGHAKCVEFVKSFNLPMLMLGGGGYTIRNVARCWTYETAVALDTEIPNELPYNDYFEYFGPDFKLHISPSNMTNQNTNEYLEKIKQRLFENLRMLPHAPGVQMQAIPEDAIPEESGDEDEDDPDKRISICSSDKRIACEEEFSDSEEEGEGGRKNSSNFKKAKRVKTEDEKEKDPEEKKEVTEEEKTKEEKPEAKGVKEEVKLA
T3 sequence (Q92769 whole entry, looked up): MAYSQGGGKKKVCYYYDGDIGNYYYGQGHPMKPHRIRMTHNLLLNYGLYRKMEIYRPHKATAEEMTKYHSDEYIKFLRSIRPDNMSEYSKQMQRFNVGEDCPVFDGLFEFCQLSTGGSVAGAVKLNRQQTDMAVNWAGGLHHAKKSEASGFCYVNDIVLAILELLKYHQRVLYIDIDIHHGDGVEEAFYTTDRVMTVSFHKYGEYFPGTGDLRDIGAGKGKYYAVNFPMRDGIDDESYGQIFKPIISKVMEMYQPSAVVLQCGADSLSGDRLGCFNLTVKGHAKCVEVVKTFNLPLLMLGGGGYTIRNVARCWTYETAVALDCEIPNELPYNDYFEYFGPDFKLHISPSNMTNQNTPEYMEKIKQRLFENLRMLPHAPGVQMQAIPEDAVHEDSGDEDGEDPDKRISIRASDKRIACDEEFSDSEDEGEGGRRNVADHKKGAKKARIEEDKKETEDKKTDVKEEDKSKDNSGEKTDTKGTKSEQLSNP
T3 sequence (Q9BY41 whole entry, looked up): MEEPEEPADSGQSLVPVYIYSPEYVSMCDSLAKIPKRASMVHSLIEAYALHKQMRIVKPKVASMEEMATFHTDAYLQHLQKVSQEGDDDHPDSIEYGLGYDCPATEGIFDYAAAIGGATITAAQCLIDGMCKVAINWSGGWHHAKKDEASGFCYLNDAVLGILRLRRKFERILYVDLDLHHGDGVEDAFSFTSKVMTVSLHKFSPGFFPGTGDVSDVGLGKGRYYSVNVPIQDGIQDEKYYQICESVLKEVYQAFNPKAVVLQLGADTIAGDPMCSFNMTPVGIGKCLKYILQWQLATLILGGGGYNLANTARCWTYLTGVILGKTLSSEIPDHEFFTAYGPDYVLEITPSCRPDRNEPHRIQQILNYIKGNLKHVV

SMILES | inhibition [1] | viability at 0.4 µM (HCT-116 [2]) [%] | Activity (HCT-116 [3]) [%] | Activity (HCT-116 [4]) [%] | Activity (HCT-116 [5]) [%] | Activity (HCT-116 [6]) [%] | Activity (HCT-116 [7]) [%] | Activity (HCT-116 [8]) [%] | pIC50 [9] | Activity (HCT-116 [10]) [%] | Activity (HCT-116 [12]) [%] | pIC50 (HCT-116 [13]) | Activity (HCT-116 [14]) [%] | inhibition [15] | other results
O=C(NCC[Se][Se]CCNC(=O)/C(Cc1ccc(O)c(Br)c1)=N/O)/C(Cc1ccc(O)c(Br)c1)=N/O | Dose-Dependent Effect | 28 | 10.45 | 4.94 | 32.08 | 47.92 | 15 | 74.56 | 7.22 | 20 | 12.9 | 6.62 | 46.1 | Dose-Dependent Effect | Activity [11]: Toxic
O=C(NCC[Se][Se]CCNC(=O)/C(Cc1ccsc1)=N/O)/C(Cc1ccsc1)=N/O | Dose-Dependent Effect | 19.7 | 36.99 | 6.97 | 50.11 | 31.05 | 11.19 | 51.82 | 5.51 | 18.84 | 7.96 | 6.68 | 47.1 | Dose-Dependent Effect | Activity (HCT-116 [16]): 52.59%; Activity (HCT-116 [17]): 39.56%; pIC50 (NCI-H1581): 6.59; pIC50 (EBC-1): 6.19; inhibition [18]: Active; inhibition [19]: Active
